Cytotoxicity data for 95 compounds are collected here from ChEMBL document CHEMBL3507680, “University of Dundee, Gates Library screen for HepG2 cell viability”.

The series is described as follows: Human HepG2 cell viability assay in 384 well format. The class given is toxicity, cell-based. More on the design: dose 125 nL, time 70.5 hour; cytotoxicity at 70.5 h: concentration not given beside the values. Conditions: HepG2 cells, read-out: Inhibition.
Take `CC(C)Oc1cccc(C(=O)C2CCCN(C(=O)c3cncs3)C2)c1` (stereo not given): the cytotoxicity at 70.5 h is -10.7%.
As to `c1cc(-c2c[nH]nc2C2CCCCC2)nc(N2CCCCCC2)n1`, the cytotoxicity at 70.5 h worked out at 2.67%.
Then `CNC(=O)Cc1cc2nccc(-c3c(OC)cccc3OC)n2n1`, with -7.19%; and `OC[C@H]1CCCN1c1nccc(-c2c[nH]nc2C2CCCCC2)n1`, with 2.37%; and `Cc1cn2c(=O)c(-c3ccnc(N[C@@H]4CCOC4)n3)cnc2s1`, with -3.69%.
Next, `CC[C@H](C)[C@H](N)C(=O)Nc1nc(-c2cnc(N(C)C)nc2)cs1`: -0.629%.
Then `Cc1[nH]c2ccccc2c1-c1ccnc(NCCN2CCCCC2)n1`, with -3.28%; and `CC(C)CC(=O)N1CC(=O)c2sc(NC3CCCCC3)nc2C1`, with 1.17%.
On to `CN1CCN(c2nccc(-c3cncnc3C3CCCCC3)n2)CC1`, for which the cytotoxicity at 70.5 h is -5.17%.
Then `NCCSc1nccc(-c2cnc(C3CC3)nc2-c2ccco2)n1`, with 21.8%; and `OC[C@H]1CCCN1c1nccc(-c2cncnc2C2CCCCC2)n1`, with -2.18%; and `CC[C@@H](CO)Nc1nccc(-c2c[nH]c3cc(C(=O)OC)ccc23)n1`, with -2.08%.
As for `Cc1ncc(-c2ccnc(SCCN(C)C)n2)c(-c2ccco2)n1`, the cytotoxicity at 70.5 h turned out to be 20.1%.
Then `Cc1csc2ncc(-c3ccnc(NC4CCOCC4)n3)c(=O)n12`, with 0.723%; and `Cc1ncc(-c2ccnc(N3CCC[C@@H]3CO)n2)c(-c2cccnc2)n1`, with -3.34%.
Then `Cc1ccc(-c2ccnc3cc(CC(=O)N4CCN(C)CC4)nn23)cc1`, with 0.106%.
Next, `CCNc1nc(-c2cccnc2)c(-c2ccnc(N3CCCC3)n2)s1`: -6.77%; `CN1CCCN(c2nccc(-c3cncnc3C3CCCCC3)n2)CC1`: 20.6%; `COCC(=O)N1CC(=O)c2sc(Nc3ccc(F)cc3F)nc2C1`: 0.281%.
Regarding `NC(=O)C1CCN(c2nccc(-c3c[nH]nc3C3CCCCC3)n2)CC1`, the cytotoxicity at 70.5 h was -4.42%.
Then `CC(=O)N1CCC(n2ccc(-c3cnc(N4CCOCC4)nc3)n2)CC1`, with -5.97%.
Next, `CC[C@H](C)[C@H](N)C(=O)N1CC(=O)c2sc(NC3CCCCC3)nc2C1`: 3.97%; `CC(C)CC(=O)N1CC(=O)c2sc(Nc3ccc(F)cc3F)nc2C1`: 0.35%; `CS(=O)(=O)NCc1cc(-c2cc(F)cc(F)c2)nc(N2CCCC2)n1`: -12.8%.
In the case of `Cc1csc2ncc(-c3ccnc(N4CCC[C@H](C(N)=O)C4)n3)c(=O)n12`, the cytotoxicity at 70.5 h is 14.4%.
Then `CC(C)(C)Nc1nc(-c2cccnc2)c(-c2ccnc(NCCO)n2)s1`, with -9.49%.
With `Cc1sc2ncc(-c3ccnc(NC4CCN(C)CC4)n3)c(=O)n2c1C`, the cytotoxicity at 70.5 h is -2.25%.
Then `CN(c1nccc(-c2cnc3sc(Cl)cn3c2=O)n1)C1CCCCC1`, with -3.38%; and `CCNc1nc(-c2cccnc2)c(-c2ccnc(NS(C)(=O)=O)n2)s1`, with -8.33%.
For `C[C@H](NS(C)(=O)=O)C(=O)NCc1cc(-c2ccco2)n(CC(F)(F)F)n1`, the cytotoxicity at 70.5 h is -4.57%.
Then `Fc1ccc(-c2n[nH]cc2-c2ccnc(NCCN3CCCC3)n2)cc1`, with 24%.
Consider `COCCCNc1nccc(-c2c[nH][nH]c2=O)n1`, for which the cytotoxicity at 70.5 h amounted to 22.8%.
Take `CN1CCN(CC2CC2)C(=O)c2cnc(N3CCCC3)nc21`: the cytotoxicity at 70.5 h is 15.9%.
Next, `CN1CCN(CC2CC2)C(=O)c2cnc(N3CCCCC3)nc21`: 30.2%; `Cc1ncc(-c2ccnc(N3CCN(C)CC3)n2)c(-c2cccnc2)n1`: -13.1%; `CCOCC(=O)N1CCC(c2nccn2Cc2cscn2)CC1`: 21.4%.
As for `CCc1ccc(CN(CC)Cc2ccc(S(=O)(=O)NC)cc2)cc1`, the cytotoxicity at 70.5 h was -1.74%.
For `CN(Cc1nc(-c2cccs2)no1)Cc1nc2c(s1)CCCC2`, the cytotoxicity at 70.5 h was -3.38%.
`Cc1cccc(-n2cnnc2CCCN2CCOCC2)c1`: the cytotoxicity at 70.5 h is -7.97%.
Next, `CC(C)c1cc(C(=O)N2CC[C@@H](c3ccc4c(c3)OCO4)[C@H](O)C2)[nH]n1`: 3.33%; `COc1ccc(OC)c(-n2cnnc2COC(C)C)c1`: -0.141%; `COCCN1CCCC2(CCN(c3nccc4ccccc34)C2)C1=O` (stereo not given): 11.2%.
Next, `C[C@@H]1CN(c2nc(N)nc3c2CCC3)CC[C@@]1(O)C1CCC1`: 4.77%.
Next, `OCC1(CCOc2ccccc2)CCN(c2ccc(Cl)cn2)CC1`: -7.7%; `O=S(=O)(c1cccnc1)N1C[C@@H]2CC[C@H](C1)N(Cc1ccccc1)C2`: -6.7%; `CN(C)C[C@@H]1CN(C(=O)Cc2ccccc2)C[C@@H]1CO`: -3.7%.
As to `Cc1nc(CCN(C)C(=O)CCNC(=O)c2ccccc2F)no1`, the cytotoxicity at 70.5 h is -4.9%.
On to `CN(Cc1ccccc1)CC1(O)CCCN(Cc2ccc(F)cc2)C1=O` (stereo not given), for which the cytotoxicity at 70.5 h was -3.64%.
As to `CNc1ncc(CN(C)C(=O)[C@@]23CNC[C@@H]2CN(C(=O)C2CC2)C3)cn1`, the cytotoxicity at 70.5 h is -7.16%.
For the compound `CN1CCC(c2nnc(CN3CCOCC3)n2C)CC1`, the cytotoxicity at 70.5 h is -24.5%.
Take `C/C=C(\C)CN1CCC2(CCC(=O)N2OCc2ccccc2F)CC1`: the cytotoxicity at 70.5 h is -7.98%.
Next, `CSCC[C@@H](CO)n1ccnc1-c1nccn1C`: -5.66%; `COc1ccc(-c2cn([C@H](CO)CC(C)C)nn2)cn1`: -4.51%.
Next, `CC1(C)CNC(=O)c2nc(CCN3CCOCC3)[nH]c2C1`: -7.47%.
Next, `CCC(Nc1cccc(OC)c1)C(=O)NCc1ccc2[nH]c(=O)[nH]c2c1` (stereo not given): -11.6%; `CC(C)Cc1ncc2c(n1)CN(c1cc(NCCO)nc(N)n1)C2`: -8.13%.
With `CCC(C)N(Cc1ccncc1)Cc1cccc(Cn2cccn2)c1` (stereo not given), the cytotoxicity at 70.5 h is -6.76%.
Then `COc1ccc(-c2n[nH]cc2CN(C)Cc2ccoc2)c(F)c1`, with -1.92%; and `Cc1cc(C(=O)N2CCC3(CC(=O)NC3=O)C2)c(-c2ccccc2)o1` (stereo not given), with 17.4%.
Then `CN1CCN2CCN(Cc3ccccc3Cn3cccn3)CC2C1` (stereo not given), with -0.968%; and `COc1cccc(-c2n[nH]cc2-c2nc(CN3CCCC3)no2)c1`, with 1.58%.
Next, `O=C(N[C@@H]1CCNC[C@H]1O)c1cc(F)cc(Cl)c1`: -1.46%; `O=C(CN1CCOc2ccccc2C1)NCc1cc2n(n1)CCNC2`: -2.02%; `COC1CCN(S(=O)(=O)N2CC(c3ccccc3)C(C)(C)C2)CC1` (stereo not given): 27.1%.
With `CC(C)Nc1ccc(-c2ccnc3c2ccn3C)nn1`, the cytotoxicity at 70.5 h is 15.5%.
Next, `CC(C)(C)c1ncc(C(=O)NCCSc2ccccn2)c(O)n1`: 30.9%; `O=C(N[C@H]1CC[C@H](O)CC1)c1ccc2nc(-c3ccccc3)cn2c1`: -7.18%; `COc1ncccc1CN1CCN(c2noc(C(C)C)n2)CC1`: 3.17%.
Then `Cc1nc(N2C[C@@H](CN3CCCN(C)CC3)[C@@H](CO)C2)c2sccc2n1`, with 27.9%.
Next, `O=C1CN(C(=O)CC2c3ccccc3CCc3ccccc32)CCN1`: 2.75%; `Cc1nccn1CCC1CCN(C2CCC3(CCNCC3)CC2)CC1`: 13.6%; `CSCC1CCCN(c2ncnc3oc(C)nc23)C1` (stereo not given): -9.81%.
Consider `COc1cccc(Cn2cc(C3=CCN(CCO)CC3)cn2)c1`, for which the cytotoxicity at 70.5 h is -11%.
Then `COc1ccccc1N1CCN(C(=O)Cn2nc(C)c(C)c2C)C(C)C1` (stereo not given), with -3.01%; and `CN(C)CCNc1cc(-c2ncccc2O)c2cc[nH]c2n1`, with -7.75%.
Then `c1ccc(CCc2n[nH]c(C3CCC3)n2)cc1`, with -2.16%.
Next, `COCCN1CCC(c2nc3c([nH]2)CC(C)(C)CNC3=O)C1` (stereo not given): 10.3%.
Turning to `CCc1cnc(C)nc1NCCN1CCCC(C(N)=O)C1` (stereo not given), the cytotoxicity at 70.5 h turned out to be 0.301%.
Then `CCO[C@H]1C[C@@H](O)C12CCN(C(=O)CC(F)(F)F)CC2`, with -7.18%.
Next, `O=C1CC[C@@H](CN(Cc2ccncc2)Cc2nc(CC3CC3)no2)N1`: -5.49%.
Next, `CCN(CCN1CCCCCC1)C(=O)c1cnc(-c2cccnc2)nc1`: -2.81%; `COc1cccc(-c2n[nH]cc2C(=O)NC(C)CC(=O)O)c1` (stereo not given): -2.91%.
For the compound `CCc1nnc(CN(C)C(=O)CN2CC(c3ccccc3)CC2=O)o1` (stereo not given), the cytotoxicity at 70.5 h was -4.25%.
Next, `O=C1CCN(C(=O)c2csc(-c3ccc(C(F)(F)F)cc3)n2)CCN1`: -8.28%.
As for `COc1ccccc1CN1C(=O)O[C@@H]2CN(c3ccccn3)C[C@@H]21`, the cytotoxicity at 70.5 h was found to be 22.7%.
Then `Cc1ccc(-c2nc(CN3CCOCC3)no2)cc1N1CCNC1=O`, with -6.32%; and `CS(=O)(=O)N1C[C@@H]2CC[C@H](C1)N(C(=O)CCc1n[nH]c3c1CCCC3)C2`, with 27.3%.
Next, `Cc1cc(S(=O)(=O)N2C[C@H](C3CC3)[C@@H](N)C2)c(C)s1`: -6.03%.
`Cc1[nH]c(=O)[nH]c(=O)c1CN1CCCC(CCc2ccccc2F)C1` (stereo not given): the cytotoxicity at 70.5 h was -5.63%.
Take `CCCOC(=O)N1CCCC2(CCN(Cc3cccc(C#N)c3)C2)C1` (stereo not given): the cytotoxicity at 70.5 h was -6.05%.
Then `CC(C)N1CCC(C(=O)N(C)CC(=O)c2ccc(O)cc2)CC1`, with -17.5%; and `Cc1cc(CN2CCC3(CC2)CC(C(=O)O)N(C(=O)C2CC2)C3)oc1C` (stereo not given), with -13.7%; and `CC(=O)N[C@@H]1CN(C2CCN(c3cccc(C)c3C)CC2)C[C@H]1C(C)C`, with -5.59%.
Next, `CC(C)CN1CCCC1c1ccc(C(=O)Nc2cccnc2)s1` (stereo not given): 0.0684%.
Then `CCN(CC)C(=O)[C@@H]1C[C@@H](N)CN1c1nc(N(C)C)nc(C)c1C`, with 2.56%.
